# Experimental data reported in publication PMC6213206, “Cyclopropane-Containing Fatty Acids from the Marine Bacterium Labrenzia sp. 011 with Antimicrobial and GPR84 Activity” (Marine Drugs, 2018).
# Tests used:
# Escherichia coli DSM 498 = experiment: disc diffusion assay; format: cell-based; settings: DSM498, 50 μg per disc, read-out: growth inhibition zone
# [1] = tested on: Eurotium rubrum DSM 62631; experiment: disc diffusion assay; format: cell-based; settings: for zone of inhibition at 50 µg/disc: Aspergillus ruber, DSM62631, 50 μg per disc, read-out: growth inhibition zone
# Description: (§1) Compounds 1 and 2 were tested against a range of microorganisms, namely the Gram-positive bacterium Bacillus megaterium DSM 32, the Gram-negative bacterium Escherichia coli JM 83 and Pseudoroseovarius crassostreae DSM 16950^T; the fungal organisms utilized were Eurotium rubrum DSM 62631, Microbotryum violaceum MB#110229, and Mycotypha microspora MB#271115. Tests were performed according to Reference. 50 μg of pure compounds or positive controls were taken from a solution of 1 mg/mL and applied on sterile paper discs on agar plates of the corresponding medium for each test organism. Multidrug-resistant pathogens Escherichia coli I-11276b, MRSA LT-1338, MRSA LT-1334 were tested with 4 μg of compound 2 in each disc. Thereafter, suspensions of the organisms were sprayed on the agar and incubated. Miconazole and streptomycin were used as positive controls. Inhibition zones were measured from the edge of the disc to the end of the area free of growth. Only total inhibition (>1 mm) was considered as a positive result.
# [2] = tested on: Microbotryum violaceum MB#110229; experiment: disc diffusion assay; format: cell-based; settings: 50 μg per disc, read-out: growth inhibition zone
# Description: as §1
# [3] = tested on: Mycotypha microspora MB#271115; experiment: disc diffusion assay; format: cell-based; settings: 50 μg per disc, read-out: growth inhibition zone
# Description: as §1
# [4] = tested on: Pseudoroseovarius crassostreae DSM 16950T; experiment: disc diffusion assay; format: cell-based; settings: Aliiroseovarius crassostreae, DSM16950T, 50 μg per disc, read-out: growth inhibition zone
# Description: as §1
# human GPR84 [5] = target: T1, human GPR84 (Homo sapiens, UniProt Q9NQS5); experiment: cAMP accumulation assay in CHO cells expressing human GPR84; format: cell-based; set-up: Emax: dose or concentration left out as unconfirmed; settings: for activity in cAMP assay (in words): Gi-mediated signaling; for cAMP Assay percent receptor activation: at 100 μM, forskolin 10 μM; for EC50: read-out: cAMP Assay EC50 ± SD
# T1 construct: CHO-hGPR84)
# Excerpt: (§2) cAMP accumulation assays determined the potency of the test compounds to inhibit forskolin-induced cAMP accumulation in Chinese hamster ovary (CHO) cells, stably expressing human GPR84, whereas the β-arrestin recruitment assays used the enzyme complementation technology.
# (§3) The recombinant CHO cell line expressing the human GPR84 (CHO-hGPR84) with a β-galactosidase fragment and β-arrestin containing the complementary fragment of the enzyme was purchased from DiscoverX (Fremont, CA, USA). This cell line was used for the β-arrestin recruitment assays as well as for cAMP accumulation assays. The CHO-hGPR84 cells were cultured in F12 medium supplemented with 10% FCS, 100 units/mL penicillin G, 100 μg/mL streptomycin, 800 μg/mL G 418, 300 μg/mL hygromycin B, and 1% ultraglutamin (Invitrogen, Carlsbad, CA or Sigma-Aldrich, St. Louis, MO, USA). Stock solutions of compounds were prepared in DMSO (final DMSO concentration: 1%). Data were analyzed using Graph Pad Prism version 6.0 (San Diego, CA, USA). Concentration-response data were fitted by nonlinear regression to estimate EC50 values.
# cAMP assays were performed as previously described. CHO cells overexpressing the human GPR84 were stimulated with forskolin (10 μM) in the absence (control) or presence of test compound for 15 min. The reaction was stopped by the addition of hot (90 °C) lysis solution containing 4 mM EDTA and 0.01% Triton X-100 in water. cAMP levels were quantified by a radioactive assay using [³H]cAMP (Perkin-Elmer, Rodgau, Germany). The forskolin-induced change in cAMP concentration in the presence of the test compound was expressed as a percentage of the response to forskolin in the absence of agonist (% of control). Three independent experiments, each in duplicates were performed.
# human GPR84 [6] = target: T1, human GPR84; experiment: β-arrestin recruitment assay (β-galactosidase enzyme complementation) in CHO-hGPR84 cells; format: cell-based; settings: for EC50: n = 5, read-out: β-Arrestin Assay EC50 ± SD; for Emax: relative to maximal effect of full agonist embelin (10 μM) = 100%, read-out: β-Arrestin Assay Efficacy (Emax)
# Excerpt: as §2
# as §3, with “The CHO-hGPR84 cells were cultured in F12 medium supplemented with 10% FCS, 100 units/mL penicillin G, 100 μg/mL streptomycin, 800 μg/mL G 418, 300 μg/mL hygromycin B, and 1% ultraglutamin (Invitrogen, Carlsbad, CA or Sigma-Aldrich, St. Louis, MO, USA).” left out
# β-arrestin assays were performed as previously described. Briefly, CHO cells expressing the human GPR84 with a β-galactosidase fragment and β-arrestin containing the complementary fragment of the enzyme were incubated with a series of compound dilutions (in DMSO, final DMSO concentration: 1%) for 90 min before adding the detection reagent (DiscoverX®, Fremont, CA, USA). After 60 min of incubation at room temperature the luminescence was measured using an NXT plate reader (Perkin-Elmer, Rodgau, Germany). Three to five independent experiments were performed, each in duplicates.
# [7] = tested on: Escherichia coli I-11276b; experiment: disc diffusion assay, multidrug-resistant pathogen; format: cell-based; settings: I11276B; Escherichia coli I-11276b (multidrug-resistant); 4 μg per disc; read-out: growth inhibition zone
# Description: as §1
# MRSA LT-1334 = experiment: disc diffusion assay, multidrug-resistant pathogen; format: cell-based; settings: Staphylococcus aureus; MRSA LT-1334 (multidrug-resistant); 4 μg per disc; read-out: growth inhibition zone
# Description: as §1
# MRSA LT-1338 = experiment: disc diffusion assay, multidrug-resistant pathogen; format: cell-based; settings: Staphylococcus aureus; MRSA LT-1338 (multidrug-resistant); 4 μg per disc; read-out: growth inhibition zone
# Description: as §1
# [8] = tested on: Bacillus megaterium DSM 32; experiment: disc diffusion assay; format: cell-based; settings: Priestia megaterium, DSM32, 50 μg per disc, read-out: growth inhibition zone
# Description: as §1
# human GPR84 [9] = target: T1, human GPR84; set-up: method as in PMID 28406627; settings: relative to maximal effect of full agonist decanoic acid (100 μM) = 100%; cited from earlier work
# T1 sequence (Q9NQS5 whole entry): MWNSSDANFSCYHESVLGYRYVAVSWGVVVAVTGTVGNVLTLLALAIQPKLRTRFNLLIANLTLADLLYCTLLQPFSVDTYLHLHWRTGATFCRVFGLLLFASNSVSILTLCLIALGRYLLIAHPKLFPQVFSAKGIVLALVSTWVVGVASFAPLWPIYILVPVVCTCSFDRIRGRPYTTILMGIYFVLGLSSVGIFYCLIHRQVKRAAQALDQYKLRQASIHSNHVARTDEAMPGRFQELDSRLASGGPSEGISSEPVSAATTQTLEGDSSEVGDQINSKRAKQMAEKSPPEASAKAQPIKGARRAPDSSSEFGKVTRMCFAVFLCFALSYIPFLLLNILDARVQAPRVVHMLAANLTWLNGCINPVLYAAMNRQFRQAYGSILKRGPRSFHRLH
Compound,zone of inhibition at 50 µg/disc (Escherichia coli DSM 498) [mm],zone of inhibition at 50 µg/disc [2] [mm],zone of inhibition at 50 µg/disc [3] [mm],zone of inhibition at 50 µg/disc [4] [mm],activity in cAMP assay (in words) (human GPR84 [5]),cAMP Assay percent receptor activation (human GPR84 [5]) [%],EC50 (human GPR84 [5]) [µM],EC50 (human GPR84 [6]) [µM],zone of inhibition at 50 µg/disc [8] [mm],zone of inhibition at 50 µg/disc [1] [mm],Emax (human GPR84 [6]) [%],other results
"CCCCCC[C@H]1C[C@H]1CCCC(=O)O (relative stereo) [Compound 1, cis-4-(2-hexylcyclopropyl)-butanoic acid]",2,8,3,5,inactive,0,> 100,> 30,–,–,–,growth inhibition zone ([1]; 50 μg per disc): devoid of activity; activity in β-arrestin assay (in words) (human GPR84 [6]): inactive; β-Arrestin Assay percent receptor activation (human GPR84 [6]; at 30 μM): 17%
"CCCCCC[C@H]1C[C@H]1CC(=O)O (relative stereo) [Compound 2, cis-2-(2-hexylcyclopropyl)-acetic acid]",3,10,6,5,did neither induce nor block Gi-mediated signaling,24,> 100,0.114 ± 0.135,10,10,54,zone of inhibition at 4 µg/disc [7]: 2 mm; zone of inhibition at 4 µg/disc (MRSA LT-1334): 3 mm; zone of inhibition at 4 µg/disc (MRSA LT-1338): 2 mm; potency in β-arrestin assay relative to dodecanoic acid (human GPR84 [6]; fold more potent than dodecanoic acid (EC50 = 2.84 μM)): 25 fold
CCCCCCCCCC(=O)O [Decanoic acid],–,–,–,–,–,–,–,–,–,–,–,cAMP Assay Efficacy (Emax) (human GPR84 [9]): 100% [26]
"CCCCCCCCCCCC(=O)O [Dodecanoic acid, reference compound]",–,–,–,–,–,–,8.87 ± 4.46,2.84 ± 0.54,–,–,95,"Emax (human GPR84 [5]; CHO, read-out: cAMP Assay Efficacy (Emax)): 94%"
"Clc1ccc(COC(Cn2ccnc2)c2ccc(Cl)cc2Cl)c(Cl)c1 (stereo not shown) [Miconazole, reference compound]",–,6,9,–,–,–,–,–,–,8,–,–
"[H]/N=C(/N)N[C@H]1[C@H](O)[C@@H](O)[C@H](O[C@@H]2O[C@@H](C)[C@](O)(C=O)[C@H]2O[C@@H]2O[C@@H](CO)[C@H](O)[C@@H](O)[C@@H]2NC)[C@@H](N/C(N)=N\[H])[C@@H]1O [Streptomycin, reference compound]",6,–,–,6,–,–,–,–,9,–,–,–
